# Experimental data published in paper PMC7312733, “From Graphite to Laccase Biofunctionalized Few-Layer Graphene: A “One Pot” Approach Using a Chimeric Enzyme” (International Journal of Molecular Sciences, 2020).
# Target: T1, POXA1b (Pleurotus ostreatus, UniProt O60199)
# T1 construct: wild-type laccase secreted by Pichia pastoris; concentrated and dialysed supernatant, not further purified
# T1 sequence (O60199 21-533): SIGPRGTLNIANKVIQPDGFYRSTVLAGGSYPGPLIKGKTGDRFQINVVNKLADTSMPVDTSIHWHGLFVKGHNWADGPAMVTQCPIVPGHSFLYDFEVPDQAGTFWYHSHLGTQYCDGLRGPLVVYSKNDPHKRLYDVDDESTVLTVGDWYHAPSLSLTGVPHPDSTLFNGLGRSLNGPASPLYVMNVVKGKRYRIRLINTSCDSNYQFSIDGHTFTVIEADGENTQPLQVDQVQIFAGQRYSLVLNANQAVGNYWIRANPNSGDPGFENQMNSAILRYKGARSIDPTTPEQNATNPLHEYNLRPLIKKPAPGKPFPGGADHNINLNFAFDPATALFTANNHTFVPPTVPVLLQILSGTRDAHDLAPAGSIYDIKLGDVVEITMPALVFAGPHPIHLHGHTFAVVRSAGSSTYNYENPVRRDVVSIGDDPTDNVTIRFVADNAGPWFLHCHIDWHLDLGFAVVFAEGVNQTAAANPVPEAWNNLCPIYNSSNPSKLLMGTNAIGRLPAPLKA
# Test: spectrophotometric oxidation assay at […] nm
# Format: biochemical
# Conditions: 2 mM ABTS, 0.1 M sodium citrate pH 3.0, room temperature
smiles,measurement,value
"CCn1c(=NN=c2sc3cc(S(=O)(=O)O)ccc3n2CC)sc2cc(S(=O)(=O)O)ccc21 [ABTS, 2,2′-azino-bis(3-ethylbenzothiazoline-6-sulphonic acid)]",spectrophotometric oxidation assay at 420 nm,"The laccase activity was assayed at room temperature, monitoring the oxidation of ABTS"
